Measured values taken from article PMC7932537, “Quantitative profiling of protease specificity” (PLoS Computational Biology, 2021).

Legend:
MMP-2 [1] = target: T1, MMP-2 (Homo sapiens, UniProt P08253); assay: K(obs) of individual phage substrates (set of 1369); assay type: biochemical; details: MMP2
T1 sequence (P08253 110-660): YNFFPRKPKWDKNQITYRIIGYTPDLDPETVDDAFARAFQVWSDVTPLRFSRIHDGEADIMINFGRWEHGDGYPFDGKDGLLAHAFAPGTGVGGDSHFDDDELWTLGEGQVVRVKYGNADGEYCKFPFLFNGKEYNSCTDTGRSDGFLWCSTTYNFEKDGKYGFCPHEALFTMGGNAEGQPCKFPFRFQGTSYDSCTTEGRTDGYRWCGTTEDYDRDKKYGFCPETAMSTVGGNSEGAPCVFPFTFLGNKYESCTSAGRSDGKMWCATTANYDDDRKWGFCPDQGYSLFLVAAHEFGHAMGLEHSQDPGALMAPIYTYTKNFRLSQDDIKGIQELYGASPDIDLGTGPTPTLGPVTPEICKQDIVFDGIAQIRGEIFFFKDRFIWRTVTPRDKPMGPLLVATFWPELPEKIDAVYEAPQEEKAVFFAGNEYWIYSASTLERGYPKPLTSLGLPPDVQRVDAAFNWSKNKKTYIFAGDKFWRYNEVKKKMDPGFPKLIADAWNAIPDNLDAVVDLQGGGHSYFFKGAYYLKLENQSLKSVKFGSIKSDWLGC

MMP-2 [2] = assay: Substrate phage display with NGS: relative probability (RP) of P3-P1' tetramer clusters; assay type: biochemical, human; details: MMP2;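 further: ratio of tetramer probability after protease selection to that in naive phage library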
MMP-9 = MMP-9 (Homo sapiens, UniProt P14780); assay: K(obs) of individual phage substrates (set of 1369); assay type: biochemical; details: MMP9
[3] = individual phage substrate of the set of 1369 peptides, cleavage position marked by '-'
[4] = RP of the P3-P1' tetramer contained in the substrate
[5] = individual phage substrate of the set of 1369 peptides, dash in the sequence marks the cleavage position
[6] = individual phage substrates, set of 1369 peptides, cleavage position marked by hyphen in sequence
[7] = RP of the P3-P1' tetramer contained in the substrate (substrate phage display with NGS)
[8] = individual phage substrates, set of 1369 peptides, hyphen in sequence marks cleavage position

Chain of MMP-9 (P14780 94-707): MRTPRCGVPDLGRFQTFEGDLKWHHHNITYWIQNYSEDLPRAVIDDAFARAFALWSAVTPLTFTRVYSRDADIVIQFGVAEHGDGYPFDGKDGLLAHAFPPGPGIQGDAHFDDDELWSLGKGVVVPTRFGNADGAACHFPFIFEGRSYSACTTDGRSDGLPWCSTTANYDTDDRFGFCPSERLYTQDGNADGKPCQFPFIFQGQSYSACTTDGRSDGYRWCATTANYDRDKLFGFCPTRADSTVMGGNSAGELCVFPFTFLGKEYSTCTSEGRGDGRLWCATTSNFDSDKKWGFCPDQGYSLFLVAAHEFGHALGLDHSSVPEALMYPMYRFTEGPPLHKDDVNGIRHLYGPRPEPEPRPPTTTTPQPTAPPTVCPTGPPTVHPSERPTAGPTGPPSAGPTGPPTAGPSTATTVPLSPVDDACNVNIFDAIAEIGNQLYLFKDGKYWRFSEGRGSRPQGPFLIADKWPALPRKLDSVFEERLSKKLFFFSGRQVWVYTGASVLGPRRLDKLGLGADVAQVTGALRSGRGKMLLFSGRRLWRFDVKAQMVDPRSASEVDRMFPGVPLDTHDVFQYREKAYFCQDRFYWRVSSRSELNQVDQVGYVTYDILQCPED

Kobs (MMP-2 [1]; [3]) [M⁻¹ s⁻¹]	Kobs (MMP-9; [5]) [M⁻¹ s⁻¹]	Kobs (MMP-2 [1]; [6]) [M⁻¹ s⁻¹]	Kobs (MMP-9; [8]) [M⁻¹ s⁻¹]	Substance	relative probability (RP) (MMP-2 [2]; [4])	relative probability (RP) (MMP-2 [2]; [7])
5090.5	1610.61			GVARP-LSTAS	27.8706	
8321.48	12792.1			NSPLS-YTASG	31.2477	
12792.1	12792.1			SGPLG-YTVTA	33.1744	
9740.44	12792.1			RTPIG-ITASG	31.281	
		12792.1	12792.1	SGPVA-LYKTA		34.2983
12792.1	12792.1			GAPRS-LVTAS	33.3704	
		12792.1	113.394	RMLAQ-LTASG		25.841
		12792.1	56.119	GSHSN-LMTAS		27.7336
		3964.21	323.705	WQYSN-LTASG		25.2832
		4205.91	6688.74	SGALH-LKATA		14.6488
		2280.5	2476.66	SGYRS-LYSTA		1.506
		6688.74	0	IAFSQ-LTASG		9.065
		142.481	0	SLFLH-MTASG		0.2069
9740.44	2837.92			GEVRF-LRTAS	15.0438	
12792.1	12792.1			GAPRS-LQTAS	33.3704	
171.876	551.253			SGPHG-FFQTA	21.975	

Kobs (MMP-2 [1]; [3]) [M⁻¹ s⁻¹]	Kobs (MMP-9; [5]) [M⁻¹ s⁻¹]	Kobs (MMP-2 [1]; [6]) [M⁻¹ s⁻¹]	Kobs (MMP-9; [8]) [M⁻¹ s⁻¹]	Substance	relative probability (RP) (MMP-2 [2]; [4])	relative probability (RP) (MMP-2 [2]; [7])
		12792.1	8321.48	RTPVG-LTASG		35.2016
		12792.1	12792.1	AGPQP-LTASG		30.3595
		1711.63	836.403	GIVKH-LQTAS		14.8595
		762.325	7015.91	IEAWS-LTASG		7.006
0	0			GSVHH-LITAS	14.1228	
		10866.7	10866.7	SPPLA-LTASG		34.4921
0	0			YDIHF-LTASG	4.537	
		10866.7	1561.44	DSLAW-LTASG		22.0358
		5090.5	0	LWYGH-LTASG		11.3746
		7015.91	0	GYFGN-LRTAS		26.0275
		386.839	27.918	GSGRH-LIKVT		3.598
12792.1	12792.1			RFPRP-ITASG	33.2176	
2615.58	3850.82			PKGYA-LTASG	0.5867	
		9740.44	12792.1	SGARS-LKGTA		17.186
		10866.7	12792.1	GFPQS-LMTAS		33.5105

Substance	Kobs (MMP-2 [1]; [3]) [M⁻¹ s⁻¹]	Kobs (MMP-9; [5]) [M⁻¹ s⁻¹]	Kobs (MMP-2 [1]; [6]) [M⁻¹ s⁻¹]	Kobs (MMP-9; [8]) [M⁻¹ s⁻¹]	relative probability (RP) (MMP-2 [2]; [4])	relative probability (RP) (MMP-2 [2]; [7])
TRIAY-LTASG	12792.1	3165.09			27.9862	
